The values below come from ChEMBL document CHEMBL3045922, “Synthesis of 6-(3-substituted-4H-1,2,4-triazol-4-yl)-2-phenylbenzo[d]oxazoles as potential anticonvulsant agents” (Med Chem Res, 2010).

The structures appear in SMILES notation. Active and inactive are the calls of the source. The rule behind the calls is not given here.

Series [1] has as its system Mus musculus. In words: Anticonvulsant activity in Mus musculus Kunming (mouse) assessed as protection against maximal electroshock-induced seizures at 100 mg/kg, ip at 0.5 hr. The class given is functional, organism-based. Set-up: dose 100 mg/kg. Background: Protection in the maximal electroshock model is a classic sign of anticonvulsant action.
The test system of series [2] is Mus musculus. In words: Anticonvulsant activity in Mus musculus Kunming (mouse) assessed as protection against maximal electroshock-induced seizures at 100 mg/kg, ip at 4 hr. The series is classed as functional, organism-based. Set-up: dose 100 mg/kg.
In series [3] the test system is Mus musculus. In words: Anticonvulsant activity in Mus musculus Kunming (mouse) assessed as protection against subcutaneous pentylenetetrazole-induced seizures at 100 mg/kg, ip at 0.5 hr. The class given is functional, organism-based. Set-up: dose 100 mg/kg.
Series [4] deals with Mus musculus. In words: Anticonvulsant activity in Mus musculus Kunming (mouse) assessed as protection against subcutaneous pentylenetetrazole-induced seizures at 100 mg/kg, ip at 4 hr. The class given is functional, organism-based. Set-up: dose 100 mg/kg.
Series [5] is described as follows: Neurotoxicity in ip dosed Mus musculus Kunming (mouse) assessed as minimal motor impairment at 0.5 hr by rotarod test. The class given is toxicity, organism-based. As to conditions: in vivo.
Series [6] is filed under the species Mus musculus. In words: Protective index, ratio of TD50 for Mus musculus Kunming (mouse) to ED50 for inhibition of maximal electroshock-induced seizure in Mus musculus Kunming (mouse). The series is classed as functional.
For series [7], the system named is Mus musculus. Put plainly: Anticonvulsant activity in ip dosed Mus musculus Kunming (mouse) assessed as protection against maximal electroshock-induced seizures at 0.5 hr. The series is classed as functional.
Series [8] concerns Mus musculus. Put plainly: Neurotoxicity in Mus musculus Kunming (mouse) assessed as minimal motor impairment at 300 mg/kg, ip at 4 hr by rotarod test. The following applies: in vivo. The series is classed as toxicity, organism-based. Set-up: dose 300 mg/kg, route intraperitoneal. In general terms: Falling from the rotarod earlier than controls is read as motor impairment.
In series [9] the test system is Mus musculus. Put plainly: Protective index, ratio of TD50 for Mus musculus Kunming (mouse) to ED50 for inhibition of maximal subcutaneous pentylenetetrazole-induced seizure in Mus musculus Kunming (mouse). The class given is functional.
Series [10] deals with Mus musculus. In words: Anticonvulsant activity in ip dosed Mus musculus Kunming (mouse) assessed as protection against subcutaneous pentylenetetrazole-induced seizures at 0.5 hr. The class given is functional.
Series [11] deals with Mus musculus. In words: Neurotoxicity in Mus musculus Kunming (mouse) assessed as minimal motor impairment at 300 mg/kg, ip at 0.5 hr by rotarod test. The class given is toxicity, organism-based. The arrangement: dose 300 mg/kg, route intraperitoneal. As to conditions: in vivo.

On to `CCCCCc1nncn1-c1ccc2nc(-c3ccccc3)oc2c1`, for which the result in [1], in series [2], in series [3] and in series [4] was inactive.

For `c1ccc(-c2nc3ccc(-n4cnnc4-c4ccccc4)cc3o2)cc1`, the outcome in [1] was Active. Moreover, in series [5], the TD50 (commonly the 50% point of the dose-response relation for the toxic effect studied) at 0.5 h turned out to be 266 mg/kg. In addition, in series [6], the “Ratio TD50/ED50” value was determined as 4.1. In series [4], the outcome was inactive. Moreover, in series [7], the ED50 (as a rule, the midpoint of the dose-response relation) was 65.4 mg/kg.

`COc1cccc(-c2nncn2-c2ccc3nc(-c4ccccc4)oc3c2)c1`: in series [1], the result was Active. Also, the result in series [2], in series [3] and in [4] was inactive. Further, the TD50 at 0.5 h in series [5] worked out at 249 mg/kg. The “Ratio TD50/ED50” value in [6] turned out to be 3.7. Besides, in series [8], the Activity entry is “Non-toxic”. For the same compound, the ED50 in series [7] was determined as 66.5 mg/kg.

For the compound `c1ccc(-c2nc3ccc(-n4cnnc4)cc3o2)cc1`, the outcome in [1] and in series [2] was Active. For the same compound, the “Ratio TD50/ED50” value worked out at 4.1 in series [9] and 9.7 in series [6]. Also, the TD50 at 0.5 h in [5] stood at 285 mg/kg. The result in [3] and in series [4] was inactive. Moreover, in series [8], the Activity result is given as “Non-toxic”. Also, the ED50 in series [10] was 69.8 mg/kg; in series [7], 29.5 mg/kg.

Turning to `CCCc1nncn1-c1ccc2nc(-c3ccccc3)oc2c1`, the result in series [2] and in [4] was inactive. In addition, the Activity entry in [8] was “Non-toxic”.

For the compound `CCc1nncn1-c1ccc2nc(-c3ccccc3)oc2c1`, the result in [4] was inactive. The Activity entry in [8] was “Non-toxic”.

Consider `CCCCCCCCCc1nncn1-c1ccc2nc(-c3ccccc3)oc2c1`, for which the outcome in series [1], in [2] and in [4] was inactive. Besides, the Activity entry in [11] and in series [8] was “Toxic” throughout.

In the case of `Clc1ccc(-c2nncn2-c2ccc3nc(-c4ccccc4)oc3c2)cc1`, the outcome in series [2], in series [3] and in [4] was inactive. Moreover, the Activity result in series [11] and in series [8] was “Non-toxic” each time.

Consider `Clc1cccc(-c2nncn2-c2ccc3nc(-c4ccccc4)oc3c2)c1`, for which the outcome in [2] and in series [4] was inactive. In addition, the Activity result in series [11] is “Toxic”; in series [8], “Non-toxic”.

With `Fc1cccc(-c2nncn2-c2ccc3nc(-c4ccccc4)oc3c2)c1`, the outcome in series [2], in series [3] and in series [4] was inactive. Besides, the Activity result in series [11] and in series [8] was “Non-toxic” throughout.

As for `Cc1nncn1-c1ccc2nc(-c3ccccc3)oc2c1`, the outcome in series [1] and in [2] was Active. The figures for the “Ratio TD50/ED50” value in [9] and in series [6] were 2.3 and 6.3, respectively. In [5], the TD50 at 0.5 h was 167 mg/kg. For the same compound, in series [11], the Activity result is reported as “Toxic”. The result in series [4] was inactive. In addition, the values for the ED50 in series [10] and in [7] were 75.6 mg/kg and 26.5 mg/kg, respectively.

Turning to `CCCCc1nncn1-c1ccc2nc(-c3ccccc3)oc2c1`, the result in series [2] and in series [4] was inactive. Also, the Activity result in series [11] and in series [8] was “Non-toxic” in each case.

As for `Cc1ccc(-c2nncn2-c2ccc3nc(-c4ccccc4)oc3c2)cc1`, the outcome in series [2] and in series [4] was inactive. For the same compound, in series [11], the Activity result was “Toxic”.

For the compound `COc1ccc(-c2nncn2-c2ccc3nc(-c4ccccc4)oc3c2)cc1`, the outcome in series [2], in series [3] and in series [4] was inactive. Moreover, the Activity result in series [11] and in series [8] was “Non-toxic” in each case.

Regarding `Fc1ccc(-c2nncn2-c2ccc3nc(-c4ccccc4)oc3c2)cc1`, the outcome in [2], in series [3] and in series [4] was inactive. In addition, the Activity entry in series [11] and in series [8] was “Non-toxic” throughout.

In the case of `NC(=O)N1c2ccccc2C=Cc2ccccc21` [CARBAMAZEPINE], the “Ratio TD50/ED50” value is reported as under 1.3 in series [9] and 6.4 in [6]. Also, in series [10], the ED50 is over 100 mg/kg.

As to `O=[N+]([O-])c1ccc(-c2nncn2-c2ccc3nc(-c4ccccc4)oc3c2)cc1`, the result in series [1], in series [2], in series [3] and in [4] was inactive.

Turning to `Clc1ccccc1-c1nncn1-c1ccc2nc(-c3ccccc3)oc2c1`, the outcome in series [1], in series [2] and in [4] was inactive. The Activity result in [11] and in series [8] was “Non-toxic” each time.
